The text below walks through data of a melting point compilation (Tetko et al.; mined from patent text by program, amines drawn as free bases though some values may be those of a salt).

Residues, ends and D or L forms follow the SMILES beside them. *: point of attachment. ONp = O=[N+]([O-])c1ccc(O*)cc1 Where only a bound is given, the exact number is not on record here.

In turn, `CC1(C)Cc2c(Cl)cccc2C=[N+]1[O-]` showed a melting point of 104 to 106 °C.

Regarding `Nc1nc(OCOC(=O)C2CCCC2)ncc1F`, the melting point lay within 101 to 104 °C.

On to `O=C1c2ccc([N+](=O)[O-])cc2COc2cc(Nc3ccc(F)cc3[N+](=O)[O-])ccc21`, for which the melting point is 211 °C.

`CC(C)COC(=O)C1(F)C(=O)NC(=O)NC1O/N=C\c1ccco1` (stereo not drawn) had a melting point of 159 to 160 °C.

`Cc1ccc2[nH]ncc2c1NCCN` came in with a melting point of 153 to 155 °C.

`c1ccc(-c2ccc(-c3nc4n(n3)CCCc3ccccc3-4)cc2)cc1`: the melting point was in the range of 135 to 137 °C.

`Brc1cccc(Sc2ccc3ccccc3c2)c1` displayed a melting point of 68 to 70 °C.

The molecule `CCCc1c(OCCCCc2nnn[nH]2)ccc(C(C)=O)c1O` yielded a melting point of 114 to 115 °C.

In turn, `CC(C)(C)OC(=O)Cc1n[nH]c2c(=O)[nH]c3cc(Cl)ccc3c(=O)c12` showed a melting point of 226 to 229 °C.

`CN1CC=C(c2c[nH]c3ccc(N)cc23)CC1` had a melting point of 200 to 203 °C.

For the molecule `CCCCCCCCCCCC(=O)NCCNCCNCCNC(=O)CCCCCCCCCCC`, the melting point lay within 110 to 112 °C.

For `CSCC(C)(C)NC(=O)c1c(I)cccc1-c1ccc(C(F)(F)F)cc1`, the melting point was in the range of 194 to 196 °C.

`C[C@H](CO)CN1CCC(c2noc3cc(F)ccc23)CC1` registered a melting point of 119 to 121 °C.

As for `O=C1NCC(C(F)(F)F)C(=O)N1c1ccccc1` (stereo not drawn), the melting point is 215 to 216 °C.

Molecule `CC1SC(=O)NN=C1c1ccc2c(c1)C(=NN(C)c1ccccc1)C(=O)N2` (stereo not drawn) displayed a melting point of 260 °C.

`O=C(NC1CCCCC1)C1=C(c2ccccc2)C(c2ccccc2)OC1=O` (stereo not drawn) returned a melting point of 151 to 153 °C.

Molecule `CN1CCC(C2=C(C#N)C(c3cccc4nonc34)c3c[nH]nc3N2)CC1` (stereo not drawn) returned a melting point of over 270 °C.

Consider `N#CC(C(=O)c1ccc(Cl)cc1)=C1CCCN1`, for which the melting point lay within 156 to 158 °C.

For `Cc1cc(Oc2ccccc2C(F)(F)F)nn1C(=O)Nc1ccccc1`, the melting point lay within 87 to 89 °C.

With `O=Cc1cc(Cl)cc2c1OCCC2`, the melting point fell in the range of 83 to 86 °C.

`CC(=O)SCCC(=O)[C@@H]1CCCC[C@H]1C(=O)O` (relative stereo) had a melting point of 65 to 68 °C.

In turn, `CS(=O)(=O)Nc1cc(Cl)c(C#N)cc1Sc1ccc(F)cc1F` returned a melting point of 159 to 162 °C.

With `COc1ccc(Cl)cc1-n1cncc1-c1ccc(C(F)(F)F)cc1`, the melting point was in the range of 158 to 159 °C.

In turn, `CCn1cc(N(C)S(=O)(=O)c2cccs2)c2[nH]c(C3=NCCS3)cc21` had a melting point of 163 °C.

For the molecule `O=C(NOC1CCCCO1)c1ccc(-c2ccc3ncnc(Nc4ccc(OCc5cccc(F)c5)c(Cl)c4)c3c2)s1` (stereo not drawn), the melting point turned out to be 250 °C.

`Cc1cccc(NC(=O)N(C)Cc2cccc3c2CN(C2CCC(=O)NC2=O)C3=O)c1` (stereo not drawn): the melting point fell in the range of 208 to 210 °C.

Molecule `C=CC[C@H]1Cc2c(OCOC)cccc2C(O)O1` (stereo partly drawn) registered a melting point of 72 to 74 °C.

The molecule `O=C(Nc1ccccc1SCc1ncon1)c1ccc(Cl)cc1` gave a melting point of 103 °C.

Take `CCOC(=O)C1=C(C)NC(c2csc(C)n2)=NC1c1cccc(Cl)c1` (stereo not drawn): the melting point lay in the range of 143 to 144 °C.

On to `O=C1NC(=O)C(c2ccc3c(c2)CCC3)S1` (stereo not drawn), for which the melting point lay in the range of 124 to 125 °C.

Consider `CC(=O)Oc1c(C)c(C)c2c(c1C)CC(CCI)O2` (racemic), for which the melting point is 89 to 90 °C.

`CCN1CC(=O)N(c2cc(Oc3ncccc3C(F)(F)F)c(Cl)cc2F)C1=O` showed a melting point of 162 to 163 °C.

As to `Cn1nc(-c2cccc(C(F)(F)F)c2)cc1C(=O)O`, the melting point lay within 198 to 199 °C.

For `Cc1ccc2c(c1)CCC2=NNC(=N)N`, the melting point is over 275 °C.

In turn, `CCOC(=O)C(C)c1ccc(-c2cn3ccccc3n2)cc1` (stereo not drawn) yielded a melting point of 110 to 112 °C.

With `CCCOc1nc2sccc2c(=N)n1CCC`, the melting point was in the range of 61 to 63 °C.

Molecule `CCOC(=O)c1c2ccc(Cl)cc2c(-c2ccccc2)n1CCCN(C)c1ccccc1` gave a melting point of 108 to 110 °C.

`CC(Oc1ccccc1)(c1ccc(O)cc1)c1ccc(O)cc1` gave a melting point of 172 to 174 °C.

Take `CC(=O)NC[C@H]1CN(c2ccc(N3CCC(=C(C)C#N)CC3)c(F)c2)C(=O)O1`: the melting point was in the range of 181 to 182 °C.

Turning to `C#Cc1ccc(-c2ccccc2)c(C)c1`, the melting point was 57 to 59 °C.

The molecule `Clc1cc(CC(Cl)(Cl)Cl)cnc1Cl` displayed a melting point of 98 to 99 °C.

For the molecule `CSC1(C)C(=O)N(C(C)=O)c2ccc(C3=NNC(=O)SC3)cc21` (stereo not drawn), the melting point is 198 °C.

Turning to `CCCCC(=O)C(C)(C)N1COC(C)=C(c2ccccc2)C1=O`, the melting point lay within 157 to 158 °C.

`Nc1cc(F)c(F)cc1C(=O)NOCc1ccccc1` showed a melting point of 125 to 126 °C.

Molecule `CSc1c(C)[nH]c2c(C)cccc12` registered a melting point of 32 to 33 °C.

As for `Nc1ccc(OCC(F)(F)F)cc1[N+](=O)[O-]`, the melting point fell in the range of 84 to 85 °C.

In the case of `O=C1CSC(=S)N1c1ccc(Cl)cc1`, the melting point lay within 124 to 126 °C.

In turn, `CC(C)(C)OC(=O)NCC12CN(c3cc4c(cc3F)c(=O)c(C(=O)O)cn4C3CC3)CC1CCO2` (stereo not drawn) showed a melting point of 235 to 237 °C.

On to `CC(C)(C)C(NC(=O)c1cccc(F)c1)Nc1c(Nc2cccnc2Cl)c(=O)c1=O` (stereo not drawn), for which the melting point lay within 228 to 229 °C.

`O=C(O)c1ccccc1C(=O)Nc1ccc2c(=O)n3c(nc2c1)C(=Cc1ccccc1)CC3` gave a melting point of over 300 °C.

With `O=c1cc(-c2cnccn2)ss1`, the melting point came out at 181 °C.

`CCOC(=O)c1cn(CC)c2nc(N3CCN(C)CC3)ncc2c1=O`: the melting point fell in the range of 146 to 147 °C.

In the case of `C[C@H](NC(=O)c1c(CN2CCNCC2)c(-c2ccccc2)nc2ccccc12)C1CCCCC1`, the melting point was 116 to 118 °C.

As for `CCNCC1CCN(c2c(F)cc3c(=O)c(C(=O)O)cn(C4CCCC4)c3c2F)C1` (stereo not drawn), the melting point is 214 to 217 °C.

The molecule `c1cc(CN2CCCC2)cc(OCCCNc2nc3ccccc3s2)c1` had a melting point of 91 to 92 °C.

Consider `CC(C)CC(NC(=O)C1CCCN1)C(=O)NCC(=O)Oc1ccc([N+](=O)[O-])cc1` (stereo not drawn) (H-Pro-Leu-Gly-ONp; configuration not given here), for which the melting point came to 173 °C.

`Cc1nc(O)sc1CCCl`: the melting point lay within 151 to 152 °C.

For the molecule `CCOc1ccc2c(c1)n(C1CCOCC1)c(=O)n2Cc1ccc(C(=O)NC(C)(C)C)cc1OC`, the melting point was determined as 209 °C.

`Cc1cccc(/C=C/c2nc(COc3ccc(CCCCn4ccnc4CCO)cc3)co2)c1` registered a melting point of 109 to 111 °C.

In turn, `CCNC(=S)N(C)c1cn(-c2cccnc2)nc1Cl` displayed a melting point of 160 to 162 °C.

As for `CC(C)Nc1ccc(O)cc1`, the melting point is 143 °C.

`O=C1NC(=O)C(Nc2cccc(-c3ccc(OCc4ccc5ccccc5n4)cc3)c2)S1` (stereo not drawn) had a melting point of 132 to 133 °C.

In turn, `Cc1nc(N)sc1S(=O)(=O)NCCN(C)C` returned a melting point of 153 °C.

With `CC(C)c1cccc(C(C)C)c1OC(=O)NP(=O)(Oc1ccccc1)Oc1ccccc1`, the melting point fell in the range of 132 to 135 °C.

For the molecule `CCOC1=C(C(=O)N(C)C)S(=O)(=O)N=C1N`, the melting point fell in the range of 221 to 223 °C.

Molecule `N#Cc1ccc2c(c1)CCC(CO)O2` (stereo not drawn) had a melting point of 85 °C.

Molecule `CC1N=C(N2CCN(C)CC2)NN=C1c1ccccc1` (stereo not drawn) gave a melting point of 124 to 125 °C.

Take `COCc1ccc(N=C2NCCN2)c(Cl)c1`: the melting point lay in the range of 108 to 110 °C.

Molecule `CCOC(=O)C1=C(C(F)(F)F)NC2=C(C(=O)CCC2)C1c1nccn1C` (stereo not drawn) showed a melting point of 197 to 198 °C.

As to `COc1ccc(OC)c2c(=O)c3c(Cl)ccc([N+](=O)[O-])c3sc12`, the melting point was in the range of 222 to 228 °C.

`COC(=O)c1c([N+](=O)[O-])cccc1S(N)(=O)=O`: the melting point was 227 to 229 °C.

`CC(N)C(O)(c1ccccc1)c1ccccc1` (stereo not drawn) displayed a melting point of 44 to 45 °C.

With `COc1ccc(OC)c2c1C[C@@H](O)[C@H](N1CCN(c3cccc(C(F)(F)F)c3)CC1)C2` (relative stereo), the melting point is 184 to 187 °C.

On to `COc1cc(Cl)cc(CC(O)CO)c1OCc1ccccc1` (stereo not drawn), for which the melting point was in the range of 65 to 68 °C.

In turn, `Cc1ccccc1C(=O)Nc1ccc(C(=O)N2CCCC(n3cccc3)c3ccccc32)cc1` (stereo not drawn) had a melting point of 208 to 210 °C.

For `O=c1ncc(Cl)cn1Cn1cc(Cl)cnc1=O`, the melting point was found to be 260 °C.

`COC(=O)/C=C/n1cnc2ccc(SC)cc2c1=O` showed a melting point of 170 °C.

Molecule `N#Cc1ccc(N2C(=O)N(CCF)C3(CCOCC3)C2=O)cc1C(F)(F)F` had a melting point of 192 to 193 °C.

`Cn1cnc2c1c1nnc(-c3ccccc3)n1c(=O)n2Cc1ccccc1` returned a melting point of 255 to 257 °C.

The molecule `CS(=O)(=O)CCc1nc2nc[nH]c2c2nc(-c3ccc(-c4ccccc4)cc3)nn12` came in with a melting point of 280 °C.

As to `CCCC(C)c1nn(-c2ccc(C(F)(F)F)cn2)cc1CCCOc1c(C)cccc1CC(=O)O` (stereo not drawn), the melting point lay in the range of 147 to 148 °C.

`COc1cc(C(=O)c2cccs2)cc([N+](=O)[O-])c1OC` came in with a melting point of 102 to 104 °C.

Consider `CCOC(=O)COc1ccc(N)cc1`, for which the melting point fell in the range of 157 to 158 °C.

Regarding `NP(N)(=O)NC(=O)C=Cc1ccccc1`, the melting point was in the range of 176 to 178 °C.

Regarding `COc1ccccc1N1CCN([C@H]2Cc3c(OC)ccc(OC)c3C[C@H]2O)CC1` (relative stereo), the melting point is 213 to 216 °C.

In turn, `O=C(O)c1ccc(Cc2cc3cc(C(F)(F)F)ccc3n2S(=O)(=O)c2cccc(C3CC3)c2)cc1` had a melting point of 147 °C.

`COc1ccc(C(=O)c2ccoc2)c(Cl)c1Cl` showed a melting point of 118 to 122 °C.

Take `CCC12CCC3C4CCC(=O)C=C4CCC3C1CCC2OC` (stereo not drawn): the melting point lay within 117 to 119 °C.

In turn, `O=C(O)C1CCc2[nH]c3ccc(Cl)cc3c2C1` (stereo not drawn) came in with a melting point of 181 to 183 °C.

In the case of `CCOC(=O)C(=NO)c1cccc(C(=O)c2ccccc2)c1`, the melting point was 109 to 110 °C.

The molecule `CCCCN1C(=O)C2CC(c3ccc(N)cc3)(C2)C1=O` gave a melting point of 178 to 179 °C.

Turning to `Cc1c(SCCN2CCOCC2)ccnc1CSc1nc2cc(C(=O)O)ccc2[nH]1`, the melting point is 120 to 124 °C.

On to `COC(=O)c1ccc2c(CCC=O)nn(C)c2c1`, for which the melting point was 80 to 83 °C.

A word on the melting point: it is the temperature of the solid-liquid transition.
